Assay results from BindingDB's records for doi:10.1016/j.bmcl.2009.03.008 (Roche R & D Center(China), 2009).

Each compound was assayed against T1, Bile acid receptor (Homo sapiens, UniProt Q96RI1) (assay: Scintillation Proximity Assay). Details: pH 8; 22 °C.
T1 sequence (Q96RI1 whole entry): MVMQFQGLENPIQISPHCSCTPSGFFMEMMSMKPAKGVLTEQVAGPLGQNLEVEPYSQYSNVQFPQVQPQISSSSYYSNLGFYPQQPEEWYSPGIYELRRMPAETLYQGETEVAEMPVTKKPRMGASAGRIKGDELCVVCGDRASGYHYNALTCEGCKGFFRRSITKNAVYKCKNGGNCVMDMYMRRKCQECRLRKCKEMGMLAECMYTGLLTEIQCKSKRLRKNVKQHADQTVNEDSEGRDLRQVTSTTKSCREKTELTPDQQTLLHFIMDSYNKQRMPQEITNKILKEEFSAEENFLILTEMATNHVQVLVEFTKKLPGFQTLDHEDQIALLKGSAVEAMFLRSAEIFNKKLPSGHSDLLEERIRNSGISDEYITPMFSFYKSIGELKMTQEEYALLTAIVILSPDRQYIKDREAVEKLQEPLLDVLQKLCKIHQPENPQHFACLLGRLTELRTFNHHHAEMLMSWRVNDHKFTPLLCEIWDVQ
Method: Binding affinity (IC50) was evaluated using scintillation proximity assay with radiolabeled ligand and biotinylated receptor. Because the scintillant is contained within the SPA bead, only radiolabel that is attached to the bead is detected. The receptor-ligand complex is bound to the bead through interaction between the biotinylated receptor and the streptavidin moiety located on the surface of the bead.

Q: With `Cc1cc(OCc2c(-c3c(Cl)c[n+]([O-])cc3Cl)noc2C(C)Cl)ccc1-c1ccc2c(C(=O)O)cn(C)c2c1` (centres undefined) [3-aryl isoxazole analog, 7b] as the compound, how does the IC50 read?
A: 0.045 µM

Q: `Cc1cc(OCc2c(-c3c(Cl)cn(C)c(=O)c3Cl)noc2C(C)Cl)ccc1-c1ccc2c(C(=O)O)cn(C)c2c1` (centres undefined) [3-aryl isoxazole analog, 7e] was tested. Which IC50 did it give?
A: 4.17 µM

Q: `Cc1cc(OCc2c(-c3c(Cl)ccc(=O)n3C)noc2C(C)Cl)ccc1-c1ccc2c(C(=O)O)cn(C)c2c1` (centres undefined) [3-aryl isoxazole analog, 7f] was tested. Which IC50 did it give?
A: 0.88 µM

Q: Which IC50 does the source give for `Cc1cc(OCc2c(-c3cc[nH]c(=O)c3Cl)noc2C(C)Cl)ccc1-c1ccc2c(C(=O)O)cn(C)c2c1` (centres undefined) [3-aryl isoxazole analog, 7c] here?
A: 1.1 µM

Q: Which IC50 does the source give for `Cc1cc(OCc2c(-c3[nH]c(=O)ccc3Cl)noc2C(C)Cl)ccc1-c1ccc2c(C(=O)O)cn(C)c2c1` (centres undefined) [3-aryl isoxazole analog, 7h] here?
A: 5.16 µM

Q: `COc1ccc(Cl)c(-c2noc(C(C)Cl)c2COc2ccc(-c3ccc4c(C(=O)O)cn(C)c4c3)c(C)c2)n1` (centres undefined) [3-aryl isoxazole analog, 7g] was tested. Which EC50 did it give?
A: 2 µM

Q: And the IC50?
A: 0.75 µM

Q: With `Cc1cc(OCc2c(-c3ccn(C)c(=O)c3Cl)noc2C(C)Cl)ccc1-c1ccc2c(C(=O)O)cn(C)c2c1` (centres undefined) [3-aryl isoxazole analog, 7d] as the compound, how does the EC50 read?
A: 7 µM

Q: And the IC50?
A: 7.33 µM
